# Tests used:
# Assay type in all cases: cell-based
# [1] = test system: PROVIDENCIA STUARTII CMX 640; conditions: P. stuartii CMX 640; BHI agar; unit assumed
# [2] = test system: STAPHYLOCOCCUS AUREUS A5177; assay: In vitro antibacterial activity, MIC, BHI agar dilution; conditions: S. aureus A5177, unit assumed
# [3] = test system: STAPHYLOCOCCUS AUREUS 1775; assay: as above; conditions: S. aureus 1775, unit assumed
# M[…] ATCC 4698 = assay: as above; conditions: M. luteus ATCC 4698, unit assumed
# In short: (§1)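 MIC was read visually as the lowest drug concentration showing no growth, a slight haze or sparsely isolated colonies relative to a compound-free BHI plate. Plates held serial aqueous dilutions in BHI agar, were spot-inoculated with 1:100 (or 1:10) culture dilutions and incubated 20 to 24 hours at 35-37° C.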
# EN[…] ATCC 8043 = assay: as above; conditions: E. faecium ATCC 8043, unit assumed
# In short: as §1
# STR[…] 508 = assay: as above; conditions: S. agalactiae CMX 508, unit assumed
# In short: as §1
# M[…] ATCC 9341 = assay: as above; conditions: M. luteus ATCC 9341, unit assumed
# In short: as §1
# [4] = test system: STAPHYLOCOCCUS AUREUS NCTC10649M; assay: as above; conditions: S. aureus NCTC10649M, unit assumed
# [5] = test system: PSEUDOMONAS AERUGINOSA 5007; assay: as above; conditions: P. aeruginosa 5007, unit assumed
# [6] = test system: PSEUDOMONAS AERUGINOSA K799/WT; assay: as above; conditions: P. aeruginosa K799/WT, unit assumed
# [7] = test system: PSEUDOMONAS AERUGINOSA DPHD-5263; assay: as above; conditions: P. aeruginosa DPHD-5263, unit assumed
# CANDIDA ALBICANS CCH 442 = assay: as above; conditions: C. albicans CCH 442, unit assumed
# ESCHERICHIA COLI JUHL = conditions: E. coli JUHL; BHI agar; unit assumed
# [8] = test system: MYCOBACTERIUM SMEGMATIS ATCC 114; assay: In vitro antibacterial activity, MIC, BHI agar dilution; conditions: M. smegmatis ATCC 114, unit assumed
# [9] = test system: PSEUDOMONAS AERUGINOSA BMH10; assay: as above; conditions: P. aeruginosa BMH10, unit assumed
# H. Influenza Dill AMP R = assay: In vitro antibacterial activity against H. Influenza Dill AMP R, MIC; conditions: separate assay, unit assumed
# Method: Representative compounds of the present invention were assayed in vitro for antibacterial activity as follows: Twelve petri dishes containing successive aqueous dilutions of the test compound mixed with 10 mL of sterilized Brain Heart Infusion (BHI) agar (Difco 0418-01-5) were prepared. Each plate was inoculated with 1:100 (or 1:10 for slow-growing strains, such as Micrococcus and Streptococcus) dilutions of up to 32 different microorganisms, using a Steers replicator block. The inoculated plates were incubated at 35-37° C. for 20 to 24 hours. In addition, a control plate, using BHI agar containing no test compound, was prepared and incubated at the beginning and end of each test.
# After incubation, each plate was visually inspected. The minimum inhibitory concentration (MIC) was defmed as the lowest concentration of drug yielding no growth, a slight haze, or sparsely isolated colonies on the inoculum spot as compared to the growth control.
# In a separate assay representative compounds of the invention were assayed in vitro for antibacterial activity against the H. Influenza Dill AMP R strain, according to the protocol described above.
# ESCHERICHIA COLI H560 = assay: In vitro antibacterial activity, MIC, BHI agar dilution; conditions: E. coli H560, unit assumed
# [10] = test system: PSEUDOMONAS AERUGINOSA DPHD-2862; assay: as above; conditions: P. aeruginosa DPHD-2862, unit assumed
# [11] = test system: STAPHYLOCOCCUS AUREUS CMX 642A; assay: as above; conditions: S. aureus CMX 642A, unit assumed
# ESCHERICHIA COLI DC-2 = assay: as above; conditions: E. coli DC-2, unit assumed
# [12] = test system: STAPHYLOCOCCUS AUREUS ATCC 6538P; assay: as above; conditions: S. aureus ATCC 6538P, 35-37° C., 20 to 24 hours, unit assumed
# [13] = test system: PSEUDOMONAS AERUGINOSA K799/61; assay: as above; conditions: P. aeruginosa K799/61, unit assumed
# PSEUDOMONAS CEPACIA 296I = assay: as above; conditions: P. cepacia 296I, unit assumed
# [14] = test system: STREPTOCOCCUS BOVIS A-5169; assay: as above; conditions: S. bovis A-5169, unit assumed
# [15] = test system: STREPTOCOCCUS PYOGENES 930; assay: as above; conditions: S. pyogenes 930, unit assumed
# [16] = test system: STAPHYLOCOCCUS AUREUS A-5278; assay: as above; conditions: S. aureus A-5278, unit assumed
# [17] = test system: ENTEROBACTER AEROGENES ATCC 13048; assay: as above; conditions: E. aerogenes ATCC 13048, unit assumed
# [18] = test system: STAPHYLOCOCCUS AUREUS CMX 553; assay: as above; conditions: S. aureus CMX 553, unit assumed
# [19] = test system: STREPTOCOCCUS PYOGENES PIU 2548; assay: as above; conditions: S. pyogenes PIU 2548, unit assumed
# ESCHERICHIA COLI KNK 437 = conditions: E. coli KNK 437; BHI agar; unit assumed
# [20] = test system: STAPHYLOCOCCUS EPIDERMIDIS 3519; conditions: S. epidermidis 3519; BHI agar; unit assumed
# [21] = test system: STREPTOCOCCUS PYOGENES EES61; assay: In vitro antibacterial activity, MIC, BHI agar dilution; conditions: S. pyogenes EES61, unit assumed
# ESCHERICHIA COLI SS = assay: as above; conditions: E. coli SS, unit assumed
# [22] = test system: KLEBSIELLA PNEUMONIAE ATCC 8045; assay: as above; conditions: K. pneumoniae ATCC 8045, unit assumed
# [23] = test system: ACINETOBACTER CALCOACETICUS CMX 669; assay: as above; conditions: A. calcoaceticus CMX 669, unit assumed
SMILES,MIC [1],MIC [2],MIC [3],MIC (M[…] ATCC 4698),MIC (EN[…] ATCC 8043),MIC (STR[…] 508),MIC (M[…] ATCC 9341),MIC [4],MIC [5],MIC [6],MIC [7],MIC (CANDIDA ALBICANS CCH 442),MIC (ESCHERICHIA COLI JUHL),MIC [8],MIC [9],MIC (ESCHERICHIA COLI H560),MIC [10],MIC [11],MIC (ESCHERICHIA COLI DC-2),MIC [12],also measured
CC[C@H]1OC(=O)[C@H](C)C(=O)[C@H](C)[C@@H](O[C@@H]2O[C@H](C)C[C@H](N(C)C)[C@H]2O)[C@](C)(OC)C[C@@H](C)C2=NC[C@H](COCc3cccc(F)c3)N3C(=O)O[C@@]1(C)[C@H]3[C@H]2C [Example 72],> 100 µg/mL,0.1 µg/mL,> 100 µg/mL,0.2 µg/mL,0.05 µg/mL,0.01 µg/mL,≤ 0.005 µg/mL,0.1 µg/mL,100 µg/mL,50 µg/mL,> 100 µg/mL,> 100 µg/mL,50 µg/mL,0.39 µg/mL,50 µg/mL,12.5 µg/mL,> 100 µg/mL,0.1 µg/mL,25 µg/mL,0.1 µg/mL,MIC (H. Influenza Dill AMP R): 2 µg/mL; MIC [13]: 0.39 µg/mL; MIC (PSEUDOMONAS CEPACIA 296I): 50 µg/mL; MIC [14]: ≤ 0.005 µg/mL; MIC [15]: 50 µg/mL; MIC [16]: > 100 µg/mL; MIC [17]: 50 µg/mL; MIC [18]: 0.1 µg/mL; MIC [19]: 0.39 µg/mL; MIC (ESCHERICHIA COLI KNK 437): 50 µg/mL; MIC [20]: 0.2 µg/mL; MIC [21]: 0.01 µg/mL; MIC (ESCHERICHIA COLI SS): 0.39 µg/mL
CC[C@H]1OC(=O)[C@H](C)C(=O)[C@H](C)[C@@H](O[C@@H]2O[C@H](C)C[C@H](N(C)C)[C@H]2O)[C@](C)(OC)C[C@@H](C)C2=N[C@@H]3CCC[C@@H]3N3C(=O)O[C@@]1(C)[C@H]3[C@H]2C [Example 17],> 100 µg/mL,0.78 µg/mL,> 100 µg/mL,0.78 µg/mL,0.2 µg/mL,0.05 µg/mL,0.1 µg/mL,0.78 µg/mL,> 100 µg/mL,> 100 µg/mL,> 100 µg/mL,> 100 µg/mL,> 100 µg/mL,12.5 µg/mL,> 100 µg/mL,100 µg/mL,> 100 µg/mL,0.78 µg/mL,> 100 µg/mL,0.78 µg/mL,MIC [22]: > 100 µg/mL; MIC [23]: 100 µg/mL; MIC [13]: 12.5 µg/mL; MIC (PSEUDOMONAS CEPACIA 296I): > 100 µg/mL; MIC [14]: 0.02 µg/mL; MIC [15]: > 100 µg/mL; MIC [16]: > 100 µg/mL; MIC [17]: > 100 µg/mL; MIC [18]: 0.78 µg/mL; MIC [19]: 0.39 µg/mL; MIC (ESCHERICHIA COLI KNK 437): > 100 µg/mL; MIC [20]: 0.78 µg/mL; MIC [21]: 0.05 µg/mL; MIC (ESCHERICHIA COLI SS): 0.78 µg/mL
CCC1OC(=O)C(C)C(=O)C(C)C(OC2OC(C)CC(N(C)C)C2O)C(C)(OC)CC(C)C2=NC(CCOc3ccccc3)CN3C(=O)OC1(C)C3C2C (centres unmarked) [Example 91],> 100 µg/mL,0.78 µg/mL,> 100 µg/mL,0.39 µg/mL,0.1 µg/mL,0.05 µg/mL,0.1 µg/mL,0.78 µg/mL,> 100 µg/mL,> 100 µg/mL,> 100 µg/mL,> 100 µg/mL,> 100 µg/mL,1.56 µg/mL,> 100 µg/mL,> 100 µg/mL,> 100 µg/mL,0.78 µg/mL,> 100 µg/mL,0.78 µg/mL,MIC [22]: > 100 µg/mL; MIC [23]: > 100 µg/mL; MIC [13]: 12.5 µg/mL; MIC (PSEUDOMONAS CEPACIA 296I): > 100 µg/mL; MIC [14]: 0.01 µg/mL; MIC [15]: 100 µg/mL; MIC [16]: > 100 µg/mL; MIC [17]: > 100 µg/mL; MIC [18]: 0.78 µg/mL; MIC [19]: 0.39 µg/mL; MIC (ESCHERICHIA COLI KNK 437): > 100 µg/mL; MIC [20]: 0.78 µg/mL; MIC [21]: 0.05 µg/mL; MIC (ESCHERICHIA COLI SS): 3.1 µg/mL

# Reference: patent publication US6274715A, “Tricyclic erythromycin derivatives” (priority 1997, dated 2001)
